By inhibition is commonly meant the drop in the measured response relative to a control, in per cent.

The test has as its system CXCL10 production. Description: CXCL10 production inhibition test. The test is classed as cell-based. The conditions noted are these: Endothelial cell; test compound 0.1 μmol/L; human umbilical vein-derived endothelial cells; TNFα 10 ng/mL; supernatant 72 hours after stimulation; ELISA; read-out: Rate of inhibition of CXCL10 production. As for the experimental part: (CXCL10 Production Inhibition Test)
0.5×10^4 or 1×10^4 human umbilical vein-derived endothelial cells were suspended in 100 μL of an EGM-2 BulletKit medium (without GA) or a Medium-200 medium supplemented with an EGM-2 SingleQuots kit (without GA), inoculated to a 96-well plate and cultured overnight. 100 μL of a solution of each test compound diluted with the same medium as that used in the inoculation was added to the cultured cells (final concentration of the test compound: 0.1 μmol/L). 1 hour thereafter, TNFα was added thereto at a final concentration of 10 ng/mL. 72 hours after the stimulation, the supernatant was recovered, and the amount of CXCL10 produced in the culture supernatant was determined using an ELISA kit (Peprotech, 900-109).
The rate of inhibition was calculated according to the following expression: Rate of inhibition (%)=100−(Amount of CXCL10 produced in the presence of the test compound/Amount of CXCL10 produced in the absence of the test compound)×100
Background: In an ELISA, binding on a coated surface is turned into a signal by an enzyme label.
As to `CCn1c(=O)cc(C2CC2)c2cc(N(C)C(=O)c3ccccc3)ccc21` [Example 2, N-(4-cyclopropyl-1-ethyl-2-oxo-1,2-dihydroquinolin-6-yl)-N-methylbenzamide], the inhibition at 0.1 µM is at least 50%.

Regarding `CCn1c(=O)cc(N2CCOCC2)c2cc(-n3c(-c4ccccc4)c[nH]c3=O)ccc21` [Example 3, 1-ethyl-4-(morpholin-4-yl)-6-(2-oxo-5-phenyl-2,3-dihydro-1H-imidazol-1-yl)quinolin-2(1H)-one], the inhibition at 0.1 µM was at least 50%.

`CCN1CCC(c2cc(=O)n(CC)c3ccc(C(=O)N(C)c4ccccc4)cc23)CC1` [Example 8, 1-ethyl-4-(1-ethylpiperidin-4-yl)-N-methyl-2-oxo-N-phenyl-1,2-dihydroquinoline-6-carboxamide]: the inhibition at 0.1 µM is at least 50%.

For the compound `CCn1c(=O)cc(C2CCN(C)CC2)c2cc(C(=O)N3CCCc4ccccc43)ccc21` [Example 11, 6-(3,4-dihydroquinolin-1(2H)-ylcarbonyl)-1-ethyl-4-(1-methylpiperidin-4-yl)quinolin-2(1H)-one], the inhibition at 0.1 µM is at least 50%.

With `CCn1c(=O)cc(C2CCN(C)CC2)c2cc(C(=O)N(C)c3ccc(C)cc3)ccc21` [Example 14, 1-ethyl-N-methyl-N-(4-methylphenyl)-4-(1-methylpiperidin-4-yl)-2-oxo-1,2-dihydroquinoline-6-carboxamide], the inhibition at 0.1 µM was at least 50%.

For the compound `CCn1c(=O)cc(C(C)C)c2cc(N(C)C(=O)c3ccc(Cl)cc3)ccc21` [Example 16, 4-chloro-N-(1-ethyl-2-oxo-4-(propan-2-yl)-1,2-dihydroquinolin-6-yl)-N-methylbenzamide], the inhibition at 0.1 µM is at least 50%.

For `CCn1c(=O)cc(C2CCN(C)CC2)c2cc(C(=O)N(C)c3ccc4c(c3)CCC4)ccc21` [Example 17, N-(2,3-dihydro-1H-inden-5-yl)-1-ethyl-N-methyl-4-(1-methylpiperidin-4-yl)-2-oxo-1,2-dihydroquinoline-6-carboxamide], the inhibition at 0.1 µM was at least 50%.

As to `CCn1c(=O)cc(N2CCOCC2)c2cc(-n3c(-c4ccc(Cl)cc4)c[nH]c3=O)ccc21` [Example 245, 6-(5-(4-chlorophenyl)-2-oxo-2,3-dihydro-1H-imidazol-1-yl)-1-ethyl-4-(morpholin-4-yl)quinolin-2(1H)-one], the inhibition at 0.1 µM was at least 50%.

With `CCn1c(=O)cc(N2CCOCC2)c2cc(-n3c(-c4ccc(Cl)cc4)cn(C)c3=O)ccc21` [Example 246, 6-(5-(4-chlorophenyl)-3-methyl-2-oxo-2,3-dihydro-1H-imidazol-1-yl)-1-ethyl-4-(morpholin-4-yl)quinolin-2(1H)-one], the inhibition at 0.1 µM is at least 50%.

With `CCn1c(=O)cc(N2CCOCC2)c2cc(-n3c(-c4ccccc4)cn(C(C)C)c3=O)ccc21` [Example 247, 1-ethyl-4-(morpholin-4-yl)-6-(2-oxo-5-phenyl-3-(propan-2-yl)-2,3-dihydro-1H-imidazol-1-yl)quinolin-2(1H)-one], the inhibition at 0.1 µM was at least 50%.

As to `CCn1c(=O)cc(C2CC2)c2cc(-n3c(=O)[nH]c(=O)n3-c3ccccc3)ccc21` [Example 248, 1-(4-cyclopropyl-1-ethyl-2-oxo-1,2-dihydroquinolin-6-yl)-2-phenyl-1,2,4-triazolidine-3,5-dione], the inhibition at 0.1 µM is at least 50%.

For `CCn1c(=O)cc(N2CCOCC2)c2cc(N(C)C(=O)c3ccc(Cl)cc3)ccc21` [Example 250, 4-chloro-N-(1-ethyl-4-(morpholin-4-yl)-2-oxo-1,2-dihydroquinolin-6-yl)-N-methylbenzamide], the inhibition at 0.1 µM was at least 50%.

Turning to `CCn1c(=O)cc(C2CC2)c2cc(-c3nc(C)nn3-c3ccccc3)ccc21` [Example 252], the inhibition at 0.1 µM was at least 50%.

Turning to `CCn1c(=O)cc(N2CCOCC2)c2cc(N3C(=O)CC[C@H]3c3ccccc3)ccc21` [Example 253, 1-ethyl-4-(morpholin-4-yl)-6-((5S)-2-oxo-5-phenylpyrrolidin-1-yl)quinolin-2(1H)-one], the inhibition at 0.1 µM was at least 50%.

For the compound `CCn1c(=O)cc(C2CC2)c2cc(N3C(=O)CC[C@H]3c3ccccc3)ccc21` [Example 254, 4-cyclopropyl-1-ethyl-6-((5S)-2-oxo-5-phenylpyrrolidin-1-yl)quinolin-2(1H)-one], the inhibition at 0.1 µM was at least 50%.

With `CCn1c(=O)cc(N2CCOCC2)c2cc(-n3ccnc3-c3ccccc3)ccc21` [Example 255], the inhibition at 0.1 µM was at least 50%.

For the compound `CCn1c(=O)cc(N2CCOCC2)c2cc(-n3cc(C)nc3-c3ccccc3)ccc21` [Example 256, 1-ethyl-6-(4-methyl-2-phenyl-1H-imidazol-1-yl)-4-(morpholin-4-yl)quinolin-2(1H)-one], the inhibition at 0.1 µM is at least 50%.

For the compound `CCn1c(=O)cc(N2CCOCC2)c2cc(-c3nccn3-c3ccccc3)ccc21` [Example 257, 1-ethyl-4-(morpholin-4-yl)-6-(1-phenyl-1H-imidazol-2-yl)quinolin-2(1H)-one], the inhibition at 0.1 µM was at least 50%.

Take `CCn1c(=O)cc(N2CCOCC2)c2cc(-c3ccccc3-c3ccccc3)ccc21` [Example 258, 6-(biphenyl-2-yl)-1-ethyl-4-(morpholin-4-yl)quinolin-2(1H)-one]: the inhibition at 0.1 µM was at least 50%.

With `CCn1c(=O)cc(N2CCOCC2)c2cc(-n3c(-c4ccccc4)cn(CCN4CCCCC4)c3=O)ccc21` [Example 259, 1-ethyl-4-(morpholin-4-yl)-6-(2-oxo-5-phenyl-3-(2-(piperidin-1-yl)ethyl)-2,3-dihydro-1H-imidazol-1-yl)quinolin-2(1H)-one], the inhibition at 0.1 µM was at least 50%.

With `CCn1c(=O)cc(N2CCOCC2)c2cc(-n3c(-c4ccccc4)cn(CCN4CCOCC4)c3=O)ccc21` [Example 260, 1-ethyl-4-(morpholin-4-yl)-6-(3-(2-(morpholin-4-yl)ethyl)-2-oxo-5-phenyl-2,3-dihydro-1H-imidazol-1-yl)quinolin-2(1H)-one], the inhibition at 0.1 µM is at least 50%.

For the compound `CCn1c(=O)cc(N2CCOCC2)c2cc(-n3c(-c4ccccc4)cn(CCN(C)C)c3=O)ccc21` [Example 261, 6-(3-(2-(dimethylamino)ethyl)-2-oxo-5-phenyl-2,3-dihydro-1H-imidazol-1-yl)-1-ethyl-4-(morpholin-4-yl)quinolin-2(1H)-one], the inhibition at 0.1 µM is at least 50%.

Turning to `CCn1c(=O)cc(N2CCOCC2)c2cc(-n3c(-c4ccccc4)cn(CCO)c3=O)ccc21` [Example 262, 1-ethyl-6-(3-(2-hydroxyethyl)-2-oxo-5-phenyl-2,3-dihydro-1H-imidazol-1-yl)-4-(morpholin-4-yl) quinolin-2(1H)-one], the inhibition at 0.1 µM is at least 50%.

On to `CCn1c(=O)cc(N2CCOCC2)c2cc(-n3c(-c4ccccc4)cn(CCOC)c3=O)ccc21` [Example 263, 1-ethyl-6-(3-(2-methoxyethyl)-2-oxo-5-phenyl-2,3-dihydro-1H-imidazol-1-yl)-4-(morpholin-4-yl) quinolin-2(1H)-one], for which the inhibition at 0.1 µM is at least 50%.

`CCCCn1cc(-c2ccccc2)n(-c2ccc3c(c2)c(N2CCOCC2)cc(=O)n3CC)c1=O` [Example 264, 6-(3-butyl-2-oxo-5-pheynyl-2,3-dihydro-1H-imidazazol-1-yl)-1-ethyl-4-(morpholin-4-yl)quinolin-2(1H)-one]: the inhibition at 0.1 µM is at least 50%.

As to `CCCn1cc(-c2ccccc2)n(-c2ccc3c(c2)c(N2CCOCC2)cc(=O)n3CC)c1=O` [Example 265, 1-ethyl-4-(morpholin-4-yl)-6-(2-oxo-5-phenyl-3-propyl-2,3-dihydro-1H-imidazol-1-yl)quinolin-2(1H)-one], the inhibition at 0.1 µM was at least 50%.

Take `CCn1cc(-c2ccccc2)n(-c2ccc3c(c2)c(N2CCOCC2)cc(=O)n3CC)c1=O` [Example 266, 1-ethyl-6-(3-ethyl-2-oxo-5-phenyl-2,3-dihydro-1H-imidazol-1-yl)-4-(morpholin-4-yl)quinolin-2(1H)-one]: the inhibition at 0.1 µM is at least 50%.

With `CCn1c(=O)cc(C2CC2)c2cc(-n3c(-c4ccc(C(F)(F)F)cc4)cn(C)c3=O)ccc21` [Example 267, 4-cyclopropyl-1-ethyl-6-(3-methyl-2-oxo-5-(4-(trifluoromethyl)phenyl)-2,3-dihydro-1H-imidazol-1-yl)quinolin-2(1H)-one], the inhibition at 0.1 µM is at least 50%.

On to `CCn1c(=O)cc(C2CC2)c2cc(-n3c(-c4ccc(C(F)(F)F)cc4)c[nH]c3=O)ccc21` [Example 268, 4-cyclopropyl-1-ethyl-6-(2-oxo-5-(4-(trifluoromethyl)phenyl)-2,3-dihydro-1H-imidazol-1-yl)quinolin-2(1H)-one], for which the inhibition at 0.1 µM was at least 50%.

Regarding `CCn1c(=O)cc(C2CC2)c2cc(-n3c(-c4ccc(Cl)cc4)cn(C)c3=O)ccc21` [Example 269, 6-(5-(4-chlorophenyl)-3-methyl-2-oxo-2,3-dihydro-1H-imidazol-1-yl)-4-cyclopropyl-1-ethylquinolin-2(1H)-one], the inhibition at 0.1 µM was at least 50%.

Consider `CCn1c(=O)cc(N2CCOCC2)c2cc(-n3c(-c4ccc(C(F)(F)F)cc4)cn(C)c3=O)ccc21` [Example 270, 1-ethyl-6-(3-methyl-2-oxo-5-(4-(trifluoromethyl)phenyl)-2,3-dihydro-1H-imidazol-1-yl)-4-(morpholin-4-yl)quinolin-2(1H)-one], for which the inhibition at 0.1 µM was at least 50%.

`CCn1c(=O)cc(C2CC2)c2cc(-n3c(-c4ccc(Cl)cc4)c[nH]c3=O)ccc21` [Example 271, 6-(5-(4-chlorophenyl)-2-oxo-2,3-dihydro-1H-imidazol-1-yl)-cyclopropyl-1-ethylquinolin-2(1H)-one]: the inhibition at 0.1 µM is at least 50%.
